Assay results published in patent publication US9480655B2, “Solid pharmaceutical dosage form of dolutegravir” (ratiopharm GmbH, priority 2013, dated 2016).
Where a name gives a salt, the structure may show the parent alone. Read-outs that look alike come from different tables or passages of the source.

Experiment: Solubility of dolutegravir and its salts in aqueous media
Type: physicochemical
Experimental: At an increasing pH, for example to pH 6.8 in 50 mM KH2PO4 the solubility of the sodium salt of dolutegravir slightly increases but the salt still remains very slightly soluble (1-0.1 mg/ml), only. Due to this very low solubility of the active ingredient the tablets known from WO2006/116764 are of little practical use because the active ingredient will hardly dissolve in the intestine resulting in a low bioavailability.
Dolutegravir may be present in the solid pharmaceutical dosage form in its non-salt form or any pharmaceutically acceptable salt or solvate thereof. Suitable pharmaceutically acceptable salts are known to the skilled person. For example, dolutegravir may be present as alkali metal salt, such as dolutegravir sodium or dolutegravir potassium. The potassium salt being preferred.

In the case of `C[C@@H]1CCO[C@H]2Cn3cc(C(=O)NCc4ccc(F)cc4F)c(=O)c(O)c3C(=O)N12` [Dolutegravir, (4R,12aS)-N-(2,4-difluorobenzyl)-7-hydroxy-4-methyl-6,8-dioxo-3,4,6,8,12,12a-hexahydro-2H-pyrido[1′,2′:4,5]pyrazino[2,1-b][1,3]oxazine-9-carboxamide], the solubility (medium not stated) was “practically insoluble”.
In the case of `C[C@@H]1CCO[C@H]2Cn3cc(C(=O)NCc4ccc(F)cc4F)c(=O)c(O)c3C(=O)N12` [potassium salt], the “solubility relative to the sodium salt” value was “more soluble than the sodium salt”.
With `C[C@@H]1CCO[C@H]2Cn3cc(C(=O)NCc4ccc(F)cc4F)c(=O)c(O)c3C(=O)N12` [sodium salt of dolutegravir] the solubility (aqueous buffer, pH 6.8 in 50 mM KH2PO4, read-out: solubility) was 100 to 1000 µg/mL and the solubility (simulated gastric fluid, 0.1 N HCl (pH 1.2), read-out: solubility) was less than 100 µg/mL.
